Test results from patent publication US11672795B2, “Compositions and methods for treating pulmonary vascular disease” (UNIVERSITY OF PITTSBURGH-OF THE COMMONWEALTH SYSTEM OF …, priority 2016, dated 2023).

How the values were obtained:
PAECs [1] = experiment: Proliferation of PAECs (cell count, BrdU pulse, PCNA staining); assay type: cell-based, human
Method: A-C) PAECs were plated on soft (1 kPa) or stiff (50 kPa) matrix and exposed to indicated treatments. Apoptosis (A-C) and proliferation (B-C) were quantified 48 h after plating. […] Apoptosis (as reflected by cleaved caspase-3 staining, CC-3+) was increased by serum starvation in both soft and stiff conditions but was not affected by GLS1 inhibition. In all panels, mean expression in control groups (soft matrix) was assigned a fold change of 1, to which relevant samples were compared. Data are expressed as mean±SD (*P<0.05; ** P<0.01, ***P<0.001).
(§1) After various indicated treatments, cultured cells were fixed with PBS/PFA 4% for 10 min and permeabilized with PBS/Triton 100×0.1% for 10 min. The cells were then incubated with anti-PCNA (#4912; 1/100; Invitrogen), anti-Ki67 (ab15580; 1/200; Abcam), and/or anti-cleaved caspase-3 (1/200; Cell Signaling) at room temperature for 2 hours. Secondary antibodies coupled with Alexa-594 and/or Alexa-488 (Thermo Scientific) were used at 1/500. Nuclei were counterstained with DAPI (Sigma).
After specified pre-treatment or transfection protocols as indicated, PAECs or PASMCs were plated in triplicate in 6 well plates at 30 000 cells per well. After overnight incubation for cells to adhere, 6 wells were counted to determine initial count at time of treatments (glutamate, aspartate, BPTES, DON or C968). After 2 days, 4 days or 6 days, the contents of the wells were trypsinized and counted, and proliferation rate was calculated.
Exponentially growing cells were plated in the indicated matrix for 48 hours.

PAECs [2] = experiment: Apoptosis of PAECs on soft or stiff matrix (caspase 3/7 activity, cleaved caspase-3 staining); assay type: cell-based, human
Method: A-C) PAECs were plated on soft (1 kPa) or stiff (50 kPa) matrix and exposed to indicated treatments. Apoptosis (A-C) and proliferation (B-C) were quantified 48 h after plating. […] In all panels, mean expression in control groups (soft matrix) was assigned a fold change of 1, to which relevant samples were compared. Data are expressed as mean±SD (*P<0.05; ** P<0.01, ***P<0.001).
as §1
Caspase 3/7 activity was quantified using the Caspase-Glo 3/7 Assay (Promega), according to manufacturer's instructions. Briefly, cells were plated on hydrogel of different stiffness and treated as described. Twenty four hours after plating, cells were cultured in the presence or absence of serum for twenty-four hours. Cells were then lysed and 10 μg of total protein were incubated for 1 h with the caspase substrates, and luminescence was quantified by plate reader (SynergyHTX multi-mode reader, Biotek).

PAAFs [3] = experiment: Metabolic activation of PAAFs cultivated on stiff matrix; assay type: cell-based
Text: (§2) A-C) Pharmacological inhibition of GLS1 by either BPTES, C968 or CB839 blunted metabolic activation of PAAFs cultivated on stiff matrix as reflected by decreased glutaminolysis (A), glycolysis (B) and aspartate production (C). D-E) Pharmacological inhibition of GLS1 by either BPTES, C968 or CB839 decreased PAAFs dependent ECM remodelling upon stimulation by pro-inflammatory cytokines (EDN1, IL6 or TGF-b). […] G-H) Fibrilar collagen visualization (G) and quantification (H) by picrosirius red staining confirmed a decreased of ECM remodelling by activated PAAF (TGF-b) in presence of GLS1 inhibitors. I-M) PAAFs were cultivated upon indicated treatments. Cells were removed and pulmonary arterial endothelial cells (PAECs) were cultivated on the matrix synthesized by the PAAF. […] Data are expressed as mean±SEM (*P<0.05, § P<0.01, #P<0.001) of at least 3 independent experiments performed in triplicate. Paired samples were compared by 2-tailed Student's t test, while 1-way ANOVA and post-hoc Tukey's tests were used for group comparisons.

GLS1 = experiment: Targeted LC-MS/MS of intracellular metabolites in PAECs on soft or stiff matrix with GLS inhibitors; assay type: cell-based, human; conditions: BPTES 10 μM, DON 5 μM; for glutamate and aspartate / glutamine, pyruvate, and succinate / lactate: compared with stiff matrix control; for alterations of metabolite expression in stiff matrix (stiffness-induced glutamine consumption, glutamate production, aspartate production) / lactate/pyruvate ratio (glycolysis): C968 10 μM, stiff matrix
Method: HEK293T cells (American Type Culture Collection) were cultivated in DMEM containing 10% fetal bovine serum (FBS). Primary human pulmonary arterial endothelial cells (PAECs) were grown in EGM-2 cell culture media (Lonza), and experiments were performed at passages 3 to 6. Primary human pulmonary arterial smooth muscle cells (PASMCs) were cultured in SmGM-2 cell culture media (Lonza), and experiments were performed at passages 3 to 9. Inhibitors of GLS1 (2, 3): BPTES (Bis-2-(5-phenylacetamido-1,3,4-thiadiazol-2-yl)ethyl sulphide), DON (6-Diazo-5-oxo-L-norleucine), and C968 (Glutaminase Inhibitor, Compound 968, 5-(3-Bromo-4-(dimethylamino)phenyl)-2,2-dimethyl-2,3,5,6-tetrahydrobenzo[a]phenanthridin-4(1H)-one) were purchased from Sigma-Aldrich and used at concentration of 10 μM, 5 μM and 10 μM respectively. Glutamate was purchased from Sigma Aldrich and used at concentration of 2 mM. Aspartate was purchased from Sigma Aldrich and used at concentration of 10 mM.
Metabolite extraction was performed essentially as described with minor modifications (35). Briefly, metabolites were extracted from cultured cells and CD31+ cells on dry ice using 80% aqueous methanol pre-cooled at −80° C. Metabolites were extracted from plasma pre-cleared by centrifugation at 20,000×g for 10 min at 4° C. Supernatants were extracted with four volumes of 100% methanol pre-cooled at −80° C. for four hours at −80° C. An internal standard, [^13C4]-2-oxoglutarate (Cambridge Isotope Laboratories) was added during metabolite extraction. Insoluble material from both cell and plasma extractions was removed by centrifugation at 20,000×g for 15 min at 4° C. The supernatant was analysed by targeted LC-MS/MS as previously described (36). Metabolites were separated using a ZIC-HILIC stationary phase (150 mm×2.1 mm×[…]; Merck). The MS parameters were optimized using a glutamine standard solution. Monitored mass transitions were 87>87 (pyruvate), 115>73+99 (succinate), 132>88 (aspartate), 145>101 (20G), […] (glutamine), 146>128 (glutamate), and 149>105 ([^13C4]-20G). Mass transitions and retention time windows were confirmed by the analysis of neat and matrix-spiked standards. Peak areas were quantified by Xcalibur Software (Thermo) and manually reviewed.
To determine whether GLS1 is critical for stiffness-induced and YAP/TAZ-dependent glutaminolysis, PAECs were cultivated in soft or stiff matrix, and exposed to known inhibitors of two isoforms of GLS1 (KGA and GAC), BPTES (Bis-2-(5-phenylacetamido-1,3,4-thiadiazol-2-yl)ethyl sulphide), DON (6-Diazo-5-oxo-L-norleucine), or CB-968 (glutaminase inhibitor, compound 968, C-968) (FIG. 3A-C) or siRNA (si-GLS; FIG. 3D-G). As quantified by LC-MS/MS, inhibition of GLS in PAECs blunted the stiffness-induced processes of glutamine consumption, glutamate production, and aspartate production (FIGS. 3A and E). […] Similar alterations of metabolic activity were observed when inhibiting GLS1 in PASMCs (data not shown).

PAAFs [4] = experiment: PAAF-dependent ECM remodelling on cytokine stimulation (RT-qPCR, picrosirius red); assay type: cell-based; conditions: stimulation by pro-inflammatory cytokines (EDN1, IL6 or TGF-b)
Text: as §2
Messenger RNAs were reverse transcribed using the Multiscript RT kit (Life Technologies) to generate cDNA. cDNA was amplified via fluorescently labeled Taqman primer sets using an Applied Biosystems 7900HT Fast Real Time PCR device. To specifically determine the relative expression of the two GLS1 isoforms KGA and GAC, TaqMan gene expression assays Hs01014019_m1 and Hs01022166_m1 were used respectively. Fold-change of RNA species was calculated using the formula (2^−ΔΔCt), normalized to RPLP0 expression.
Picrosirius Red stain was achieved through the use of 5 μm paraffin sections stained with 0.1% Picrosirius Red (Direct Red80, Sigma-Aldrich) and counterstained with Weigert's hematoxylin to reveal fibrillar collagen. The sections were then serially imaged using with an analyzer and polarizer oriented parallel and orthogonal to each other. Microscope conditions (lamp brightness, condenser opening, objective, zoom, exposure time, and gain parameters) were maintained throughout the imaging of all samples. A minimal threshold was set on appropriate control sections for each experiment in which only the light passing through the orthogonally-oriented polarizers representing fibrous structures (i.e., excluding residual light from the black background) was included. The threshold was maintained for all images across all conditions within each experiment. The area of the transferred regions that was covered by the thresholded light was calculated and at least 10 sections/vessel per condition were averaged together (NIH ImageJ software). Targeted LC-MS/MS

Compound: O=C(Cc1ccccc1)Nc1nnc(CCSCCc2nnc(NC(=O)Cc3ccccc3)s2)s1 [BPTES, Bis-2-(5-phenylacetamido-1,3,4-thiadiazol-2-yl)ethyl sulphide]
- proliferation in stiff matrix (PCNA+) (PAECs [1]; PAECs, stiff matrix, 48 h after plating): decreased
- apoptosis (cleaved caspase-3 staining, CC-3+) (PAECs [2]; serum starvation, soft and stiff conditions): not affected
- caspase 3/7 activity (PAECs [2]; soft (1 kPa) or stiff (50 kPa) matrix, 24 h after serum depletion, vs vehicle control): No significant changes
- aspartate production (PAAFs [3]): decreased
- glutaminolysis (PAAFs [3]): decreased
- glycolysis (PAAFs [3]): decreased
- metabolic activation of PAAFs (PAAFs [3]): blunted
- glutamate and aspartate (GLS1): decreased
- glutamine, pyruvate, and succinate (GLS1): increased
- lactate (GLS1): decreased
- alterations of metabolite expression in stiff matrix (stiffness-induced glutamine consumption, glutamate production, aspartate production) (GLS1): blunted
- lactate/pyruvate ratio (glycolysis) (GLS1): decreased
- PAAFs dependent ECM remodelling (PAAFs [4]): decreased

Compound: [N-]=[N+]=CC(=O)CC[C@H](N)C(=O)O [DON, 6-Diazo-5-oxo-L-norleucine]
- glutamate and aspartate (GLS1): decreased
- glutamine, pyruvate, and succinate (GLS1): increased
- lactate (GLS1): decreased
- alterations of metabolite expression in stiff matrix (stiffness-induced glutamine consumption, glutamate production, aspartate production) (GLS1): blunted
- lactate/pyruvate ratio (glycolysis) (GLS1): decreased

Compound: N[C@@H](CCC(=O)O)C(=O)O [glutamate, Glutamate]
- cellular proliferation in cells with diminished GLS1 or YAP/TAZ (PAECs [1]; PAECs or PASMCs with siRNA knockdown, glutamate 2 mM, aspartate 10 mM supplementation, data not shown): at least partially restored
